Experimental findings from patent US9067897B2, “2,4-Diaminoquinazolines for spinal muscular atrophy” (Families of Spinal Muscular Atrophy, priority 2004, dated 2015) are described below.

In general, EC50 refers to the concentration giving half of the maximal effect. Lower therefore signals a more potent agent.

One test deals with SMN2 promoter. As to the kind of experiment: SMN2 promoter assay (β-lactamase reporter) in NSC-34 cells. The format is cell-based, mouse. The conditions noted are these: Mus musculus, SMN2 promoter driving β-lactamase, 12 point dose curve, average of 3-6 dose curve experiments. The text has this: All compounds were screened using an in vitro based SMN2 promoter assay. We used NSC-34 cells, a hybrid cell line between mouse spinal cord cells and mouse neuroblastoma cells. NSC-34 cells harbor an expression plasmid containing a 3.4 kb promoter fragment of the SMN2 gene driving β-lactamase expression.
[…] […] CCF2-AM diffuses across the plasma membrane and is converted into an active β-lactamase substrate by cytoplasmic esterase. […] The fold induction is proportional to the extent of β-lactamase produced and in turn proportional to SMN2 promoter activation for a given compound relative to vehicle (DMSO) control. […] These values are used to rank activities of the compounds and derive structure activity relationship.
The molecule `Cc1ccc(COc2cccc3nc(N)nc(N)c23)cc1` [Example 1, 5-(4-Methylbenzyloxy)quinazoline-2,4-diamine] had an EC50 of less than 1000 nM.

`Nc1nc(N)c2c(OCc3ccc(Cl)cc3)cccc2n1` [Example 2, 5-(4-Chlorobenzyloxy)quinazoline-2,4-diamine] registered an EC50 of less than 1000 nM.

For the molecule `Nc1nc(N)c2c(OCC(F)(F)F)cccc2n1` [Example 3, 5-(2,2,2-Trifluoroethoxy)quinazoline-2,4-diamine], the EC50 was 1000 to 5000 nM.

Consider `Nc1nc(N)c2c(OCc3ccc(I)cc3)cccc2n1` [Example 4, 5-(4-Iodobenzyloxy)quinazoline-2,4-diamine], for which the EC50 was less than 1000 nM.

For the molecule `Nc1nc(N)c2c(OCc3cccc(Cl)c3)cccc2n1` [Example 5, 5-(3-Chlorobenzyloxy)quinazoline-2,4-diamine], the EC50 is less than 1000 nM.

`Nc1nc(N)c2c(OCc3ccccc3Cl)cccc2n1` [Example 6, 5-(2-Chlorobenzyloxy)quinazoline-2,4-diamine] had an EC50 of less than 1000 nM.

In the case of `Cc1ccccc1COc1cccc2nc(N)nc(N)c12` [Example 7, 5-(2-Methylbenzyloxy)quinazoline-2,4-diamine], the EC50 is less than 1000 nM.

With `Cc1ccc(CCOc2cccc3nc(N)nc(N)c23)cc1` [Example 8, 5-(2-p-Tolylethoxy)quinazoline-2,4-diamine], the EC50 was less than 1000 nM.

`Nc1nc(N)c2c(OCCc3ccc(Cl)cc3)cccc2n1` [Example 9, 5-[2-(4-Chlorophenyl)ethoxy]quinazoline-2,4-diamine] had an EC50 of less than 1000 nM.

As to `Cc1cccc(COc2cccc3nc(N)nc(N)c23)c1` [Example 10, 5-(3-Methylbenzyloxy)quinazoline-2,4-diamine], the EC50 is less than 1000 nM.

Turning to `Nc1nc(N)c2c(OCc3cccnc3)cccc2n1` [Example 11, 5-(Pyridin-3-ylmethoxy)quinazoline-2,4-diamine], the EC50 was less than 1000 nM.

As to `CC(Oc1cccc2nc(N)nc(N)c12)c1ccccc1` (stereo not shown) [Example 12, 5-(1-Phenylethoxy)quinazoline-2,4-diamine], the EC50 was less than 1000 nM.

As for `Nc1nc(N)c2c(OCC3CC=CCC3)cccc2n1` (stereo not shown) [Example 13, 5-(Cyclohex-3-enylmethoxy)quinazoline-2,4-diamine], the EC50 is less than 1000 nM.

In the case of `Nc1nc(N)c2c(OCC3CCC3)cccc2n1` [Example 14, 5-(Cyclobutylmethoxy)quinazoline-2,4-diamine], the EC50 was less than 1000 nM.

The molecule `COCCOc1cccc2nc(N)nc(N)c12` [Example 15, 5-(2-Methoxyethoxy)quinazoline-2,4-diamine] registered an EC50 of less than 1000 nM.

As to `Nc1nc(N)c2c(OCC3CC3)cccc2n1` [Example 16, 5-(Cyclopropylmethoxy)quinazoline-2,4-diamine], the EC50 was less than 1000 nM.

On to `Nc1nc(N)c2c(OCC3CCCCC3)cccc2n1` [Example 17, 5-(Cyclohexylmethoxy)quinazoline-2,4-diamine], for which the concentration for a half-maximal effect (EC50) was in the range of 1000 to 5000 nM.

`Nc1nc(N)c2c(OCC3CCCC3)cccc2n1` [Example 18, 5-(Cyclopentylmethoxy)quinazoline-2,4-diamine] returned an EC50 of less than 1000 nM.

The molecule `C=CCOCCOc1cccc2nc(N)nc(N)c12` [Example 19, 5-(2-Allyloxyethoxy)quinazoline-2,4-diamine] yielded an EC50 of less than 1000 nM.

`CN1CCCC(COc2cccc3nc(N)nc(N)c23)C1` (stereo not shown) [Example 20, 5-(1-Methylpiperidin-3-ylmethoxy)quinazoline-2,4-diamine] displayed an EC50 of less than 1000 nM.

The molecule `Nc1nc(N)c2c(OCc3ccco3)cccc2n1` [Example 21, 5-(Furan-2-ylmethoxy)quinazoline-2,4-diamine] yielded an EC50 of less than 1000 nM.

Molecule `Nc1nc(N)c2c(OCc3cccs3)cccc2n1` [Example 22, 5-(Thiophen-2-ylmethoxy)quinazoline-2,4-diamine] displayed an EC50 of less than 1000 nM.

The molecule `Cc1ccc(Cc2cccc3nc(N)nc(N)c23)cc1` [Example 23, 5-(4-Methylbenzyl)quinazoline-2,4-diamine] displayed an EC50 of 1000 to 5000 nM.

`Nc1nc(N)c2c(Cc3ccccc3)cccc2n1` [Example 24, 5-Benzylquinazoline-2,4-diamine] gave an EC50 of less than 1000 nM.

`Nc1nc(N)c2c(Cc3ccc(Cl)cc3)cccc2n1` [Example 25, 5-(4-Chlorobenzyl)Quinazoline-2,4-Diamine] returned an EC50 of less than 1000 nM.

Regarding `COc1ccc(Cc2cccc3nc(N)nc(N)c23)cc1` [Example 26, 5-(4-Methoxybenzyl)Quinazoline-2,4-Diamine], the EC50 was less than 1000 nM.

`Nc1nc(N)c2c(OCCCc3ccc(Cl)cc3)cccc2n1` [Example 27, 5-[3-(4-Chlorophenyl)propoxy]quinazoline-2,4-diamine] displayed an EC50 of less than 1000 nM.

`CC(Oc1cccc2nc(N)nc(N)c12)c1cccc(Cl)c1` (stereo not shown) [Example 28, 5-[1-(3-Chlorophenyl)ethoxy]quinazoline-2,4-diamine]: the EC50 is less than 1000 nM.

Consider `Nc1nc(N)c2c(SCc3ccc(Cl)cc3)cccc2n1` [Example 29, 5-(4-Chlorobenzylsulfanyl)quinazoline-2,4-diamine], for which the EC50 was less than 1000 nM.

In the case of `Cc1ccc(C#Cc2cccc3nc(N)nc(N)c23)cc1` [Example 30, 5-p-Tolylethynylquinazoline-2,4-diamine], the EC50 is less than 1000 nM.

In the case of `Nc1nc(N)c2c(S(=O)(=O)c3ccc(Cl)cc3)cccc2n1` [Example 31, 5-(4-Chlorobenzenesulfonyl)quinazoline-2,4-diamine], the EC50 was 1000 to 5000 nM.

`CC(=O)Nc1nc(NC(C)=O)c2c(OCc3ccc(Cl)cc3)cccc2n1` [Example 32, N-[2-Acetylamino-5-(4-chlorobenzyloxy)quinazolin-4-yl]acetamide] displayed an EC50 of 5000 to 10000 nM.

As to `CC1=NOC(COc2cccc3nc(N)nc(N)c23)C1` (stereo not shown) [Example 33, 5-(3-Methyl-4,5-dihydroisoxazol-5-ylmethoxy)quinazoline-2,4-diamine], the EC50 lay in the range of 1000 to 5000 nM.

Regarding `Nc1nc(N)c2c(OCc3ccoc3)cccc2n1` [Example 34, 5-(Furan-3-ylmethoxy)quinazoline-2,4-diamine], the EC50 is less than 1000 nM.

In the case of `Nc1nc(N)c2c(OCc3ccccc3)cccc2n1` [Example 35, 5-Benzyloxyquinazoline-2,4-diamine], the EC50 was less than 1000 nM.

Regarding `Nc1nc(N)c2c(OCc3ccccn3)cccc2n1` [Example 36, 5-(Pyridin-2-ylmethoxy)Quinazoline-2,4-diamine], the EC50 was less than 1000 nM.

Turning to `Nc1nc(N)c2c(OCCc3ccccc3)cccc2n1` [Example 37, 5-Phenethyloxyquinazoline-2,4-diamine], the EC50 is less than 1000 nM.

In turn, `CCCCCCCCOc1cccc2nc(N)nc(N)c12` [Example 38, 5-Octyloxyquinazoline-2,4-diamine] yielded an EC50 of less than 1000 nM.

On to `Nc1nc(N)c2c(OC3Cc4ccccc4C3)cccc2n1` [Example 40, 5-(Indan-2-yloxy)quinazoline-2,4-diamine], for which the EC50 was less than 1000 nM.

`Nc1nc(N)c2c(O[C@H]3CCc4ccccc43)cccc2n1` [Example 41, 5-((S)-Indan-1-yloxy)quinazoline-2,4-diamine] gave an EC50 of 5000 to 10000 nM.

Consider `C[C@H](Oc1cccc2nc(N)nc(N)c12)c1ccccc1` [Example 42, 5-((S)-1-Phenylethoxy)quinazoline-2,4-diamine], for which the EC50 is less than 1000 nM.

In the case of `Nc1nc(N)c2c(COc3ccc(Cl)cc3)cccc2n1` [Example 43, 5-(4-Chlorophenoxymethyl)quinazoline-2,4-diamine], the EC50 is less than 1000 nM.

The molecule `Cc1ccc(OCc2cccc3nc(N)nc(N)c23)cc1` [Example 44, 5-p-Tolyloxymethylquinazoline-2,4-diamine] showed an EC50 of less than 1000 nM.

On to `Nc1nc(N)c2c(COc3ccc(F)cc3)cccc2n1` [Example 45, 5-(4-Fluorophenoxymethyl)quinazoline-2,4-diamine], for which the EC50 was less than 1000 nM.

In turn, `Nc1nc(N)c2c(Cc3ccsc3)cccc2n1` [Example 46, 5-Thiophen-3-ylmethylquinazoline-2,4-diamine] came in with an EC50 of less than 1000 nM.

The molecule `Nc1nc(N)c2c(OCc3ccsc3)cccc2n1` [Example 47, 5-(Thiophen-3-ylmethoxy)quinazoline-2,4-diamine] displayed an EC50 of less than 1000 nM.

`CC(Oc1cccc2nc(N)nc(N)c12)c1ccncc1` (stereo not shown) [Example 48, 5-(1-Pyridin-4-ylethoxy)quinazoline-2,4-diamine] yielded an EC50 of less than 1000 nM.

For `CC(Oc1cccc2nc(N)nc(N)c12)c1ccc(Cl)cc1` (stereo not shown) [Example 49, 5-[1-(4-Chlorophenyl)ethoxy]quinazoline-2,4-diamine], the EC50 is less than 1000 nM.

`CCC(Oc1cccc2nc(N)nc(N)c12)c1ccc(Cl)cc1` (stereo not shown) [Example 50, 5-[1-(4-Chlorophenyl)propoxy]quinazoline-2,4-diamine]: the EC50 is less than 1000 nM.

Regarding `CC(C)(C)C(Oc1cccc2nc(N)nc(N)c12)c1ccc(Cl)cc1` (stereo not shown) [Example 51, 5-[1-(4-Chlorophenyl)-2,2-dimethylpropoxy]quinazoline-2,4-diamine], the EC50 lay in the range of 5000 to 10000 nM.

For `Nc1nc(N)c2c(OC(c3ccccc3)c3ccccc3)cccc2n1` [Example 52, 5-Benzhydryloxyquinazoline-2,4-diamine], the EC50 was less than 1000 nM.

The same test, now with this note: SMN2 promoter driving β-lactamase, 12 point dose curve, average of 3-6 dose curve experiments.
The molecule “2-(2,4-Diaminoquinazolin-5-yloxy)-1-(4-fluorophenyl)ethanol [Example 167]” registered an EC50 of less than 1000 nM.

“5-(3-Fluorobenzyloxy)quinazoline-2,4-diamine [Example 102]”: the EC50 was less than 1000 nM.

“5-((1S,2R,5S)-6,6-Dimethylbieyclo[3.1.1]hept-2-ylmethoxy)quinazoline-2,4-diamine [Example 130]” registered an EC50 of less than 1000 nM.

Regarding “5-[1-(4-fluorophenyl)-1-methyl-ethoxy]-quinazoline-2,4-diamine [Example 101]”, the EC50 is less than 1000 nM.
